Experimental data reported in paper PMC8820820, “Feasibility and safety of targeting mitochondria for cancer therapy – preclinical characterization of gamitrinib, a first-in-class, mitochondriaL-targeted small molecule Hsp90 inhibitor” (Cancer Biology & Therapy, 2022).

Legend:
[1] = Gamitrinib pharmacokinetics in rat plasma, single IV dose; format: in vivo, Sprague-Dawley rats; details: after IV Gamitrinib 5 mg/kg
Protocol: Sprague-Dawley rats (n = 3) were administered with a single intravenous (IV) dose of 1 mL Gamitrinib (5 mg/kg) formulated as described above without added microfluidization. Blood samples were collected via lateral tail vein using K2EDTA as an anticoagulant at 0.083, 0.25, 0.5, 1, 2, 4, and 24 h post-dose, chilled on ice, and centrifuged at 5000 rpm for 10 min. Aliquots (0.2 mL) of each plasma sample were stored frozen at −20°C. For analysis, 50 µL aliquots of the study samples were mixed with 50 µL of ACN/H2O (50:50), extracted by protein precipitation using ACN containing the internal standard Gamitrinib-d15 (100 ng/mL), and the aliquots of the supernatant were mixed with deionized water for Gamitrinib determination. Batch samples under analysis included a calibration curve, a matrix blank (blank rat plasma), a reagent blank, a control zero (blank rat plasma spiked with internal standard), and duplicate QC samples at three concentration levels (low, medium, and high) in addition to the study samples. Within each batch, the study samples were bracketed by calibration standards or QC samples. The lowest calibration standard served to evaluate system suitability at the beginning of each batch. […] Overall, the concentration of Gamitrinib was measured in 21 rat plasma samples in 1 analytical batch using LC-MS/MS data acquisition on a Shimadzu Nexera LC system coupled with an AB Sciex Triple Quad 5500 mass spectrometer. Chromatograms were integrated using Analyst 1.6.2 software. A weighted (1/x^2, x = concentration) linear regression was used to generate the calibration curve for Gamitrinib. […] The mean, standard deviation, precision, accuracy, and assay variability were calculated using Microsoft Excel.

[2] = Bidirectional Caco2 cell monolayer permeability; details: human
Protocol: Caco-2 and HEK293 cells were obtained from the American Type Culture Collection (ATCC, Manassas, VA) and grown in culture according to the supplier’s specifications. In some experiments, HEK293 cells were stably transfected with hERG cDNA, and polyclonal cultures were maintained in the presence of 250 µg/ml geneticin (G418).
Bidirectional Caco2 cell monolayer permeability. Caco2 cells (2x10^4/well) were seeded onto apical chambers of a 24-multiwell insert plate and incubated at 37°C in 5% CO2. After 21 d, the transepithelial electrical resistance (TEER) in ohms was read for each insert well as a quality control for monolayer integrity (>900 ohms or 300 ohms cm^2). The cell monolayers were incubated with 400 µL transport buffer on the apical (A) and 1.2 mL on the basolateral (B) sides for 30 min. After preincubation, dosing solution was added to the apical (400 µL, A-to-B, donor) or basolateral sides (1.2 mL, B-to-A, donor) or receiving buffer to the apical (400 µL, B-to-A, receiver) or basolateral sides (1.2 mL, A-to-B, receiver) for 90 min at 37°C in 5% CO2. […] Papp’A>B (nm/s) was calculated with Equation 1.
Papp Efflux Ratio (ER) was calculated with Equation 2.
ER=Papp,B>APapp,A>BEquation 2: […]
Propranolol (high permeability marker, non-P-gp substate) and digoxin (P-gp substrate) were used as controls.

[3] = Phase I, cytochrome P450-mediated human liver microsome metabolism
in vitro = details: human
[4] = Caco-2, Papp Efflux Ratio (ER), Papp,B>A / Papp,A>B
[5] = Caco-2, Papp, A>B, Caco2 monolayer, apical to basolateral
[6] = Caco-2, Papp, B>A, Caco2 monolayer, basolateral to apical
[7] = Caco-2, Pexact Efflux Ratio, Caco2 monolayer
[8] = Caco-2, Pexact,A>B, Caco2 monolayer
[9] = Caco-2, Pexact,B>A, Caco2 monolayer

CO[C@H]1/C=C\C=C(/C)C(=O)NC2=CC(=O)C(N)=C(C[C@@H](C)C[C@H](OC)[C@H](O)[C@@H](C)/C=C(\C)[C@@H]1OC(N)=O)C2=O [17-AG, 17-(amino)-17-demethoxygeldanamycin]
17-AG plasma concentration ([1]; animal 1, 5 min): BLOQ
17-AG plasma concentration ([1]; animal 1, 15 min): 0.561 ng/mL
17-AG plasma concentration ([1]; animal 1, 30 min): BLOQ
17-AG plasma concentration ([1]; animal 1, 60 min): BLOQ
17-AG plasma concentration ([1]; animal 1, 120 min): BLOQ
17-AG plasma concentration ([1]; animal 1, 240 min): BLOQ
17-AG plasma concentration ([1]; animal 1, 1440 min): BLOQ
17-AG plasma concentration ([1]; animal 2, 5 min): 1.519 ng/mL
17-AG plasma concentration ([1]; animal 2, 15 min): BLOQ
17-AG plasma concentration ([1]; animal 2, 30 min): BLOQ
17-AG plasma concentration ([1]; animal 2, 60 min): BLOQ
17-AG plasma concentration ([1]; animal 2, 120 min): BLOQ
17-AG plasma concentration ([1]; animal 2, 240 min): BLOQ
17-AG plasma concentration ([1]; animal 2, 1440 min): BLOQ
17-AG plasma concentration ([1]; animal 3, 5 min): 1.113 ng/mL
17-AG plasma concentration ([1]; animal 3, 15 min): BLOQ
17-AG plasma concentration ([1]; animal 3, 30 min): BLOQ
17-AG plasma concentration ([1]; animal 3, 60 min): BLOQ
17-AG plasma concentration ([1]; animal 3, 120 min): BLOQ
17-AG plasma concentration ([1]; animal 3, 240 min): BLOQ
17-AG plasma concentration ([1]; animal 3, 1440 min): BLOQ

C[C@H]1O[C@@H](O[C@H]2[C@@H](O)C[C@H](O[C@H]3[C@@H](O)C[C@H](O[C@H]4CC[C@@]5(C)[C@H](CC[C@@H]6[C@@H]5C[C@@H](O)[C@]5(C)[C@@H](C7=CC(=O)OC7)CC[C@]65O)C4)O[C@@H]3C)O[C@@H]2C)C[C@H](O)[C@@H]1O [Digoxin]
efflux ratio at 90 min [2, 4]: 21
Papp A→B at 90 min [2, 5]: 0.547 ×10⁻⁶ cm/s
Papp B→A at 90 min [2, 6]: 11.5 ×10⁻⁶ cm/s
efflux ratio at 90 min [2, 7]: 21.2
Papp A→B at 90 min [2, 8]: 0.413 ×10⁻⁶ cm/s
Papp B→A at 90 min [2, 9]: 8.76 ×10⁻⁶ cm/s

Cc1ncc2n1-c1ccc(Cl)cc1C(c1ccccc1F)=NC2 [Midazolam, reference compound]
elimination rate constant (k) ([3]; 0.5 µM, human liver microsomes): 0.04
intrinsic clearance (CLint) ([3]; 0.5 µM, human liver microsomes): 3.23 mL/min/g
half-life at 0.5 µM ([3]; human, liver microsomes): 17 min

CC(C)NCC(O)COc1cccc2ccccc12 (stereo not shown) [Propranolol]
efflux ratio at 90 min [2, 4]: 0.87
Papp A→B at 90 min [2, 5]: 18.6 ×10⁻⁶ cm/s
Papp B→A at 90 min [2, 6]: 16.2 ×10⁻⁶ cm/s
efflux ratio at 90 min [2, 7]: 0.81
Papp A→B at 90 min [2, 8]: 20.9 ×10⁻⁶ cm/s
Papp B→A at 90 min [2, 9]: 17 ×10⁻⁶ cm/s

CC(=O)CC(c1ccccc1)c1c(O)c2ccccc2oc1=O (stereo not shown) [warfarin]
recovery at 4 h, 2 µg/mL (in vitro): 88.3 ± 2.9%
